Drawing on ChEMBL document CHEMBL4610017, “Discovery of 1,2,4-oxadiazole derivatives as a novel class of noncompetitive inhibitors of 3-hydroxykynurenine transaminase (HKT) from Aedes aegypti” (Bioorg Med Chem, 2020), this text covers IC50, Ki and inhibition for twelve compounds.

Test [1] in a line: Inhibition of recombinant Aedes aegypti RecLab N-terminal Trx-fused/His6-tagged 3-hydroxykynurenine transaminase H360M mutant expressed in Escherichia coli Rosetta 2 (DE3) assessed as conversion of 3-hydroxy kynurenine to xanthurenic-acid using 3-D,L hydroxy kynurenine as substrate preincubated with PLP cofactor and enzyme and 30 mins later incubated with 3-D,L-HK and measured after 5 mins by microplate reader assay.

Test [2] can be described thus: Competitive inhibition of Anopheles gambiae 3-hydroxykynurenine transaminase.
For another test, the system named is Aedes aegypti. As to the kind of experiment: Non-competitive mixed inhibition of recombinant Aedes aegypti RecLab N-terminal Trx-fused /His6-tagged 3-hydroxykynurenine transaminase H360M mutant expressed in Escherichia coli Rosetta 2 (DE3) using varying level of 3-D,L hydroxy kynurenine as substrate by Lineweaver-Burk plot analysis.
A short description of test [3]: Binding affinity to recombinant Aedes aegypti RecLab N-terminal Trx-fused/His6-tagged 3-hydroxykynurenine transaminase H360M mutant expressed in Escherichia coli Rosetta 2 (DE3) assessed as inhibition constant for free form of enzyme.
Test [4] can be described thus: Binding affinity to recombinant Aedes aegypti RecLab N-terminal Trx-fused/His6-tagged 3-hydroxykynurenine transaminase H360M mutant expressed in Escherichia coli Rosetta 2 (DE3) assessed as inhibition constant for enzyme-substrate complex.

SMILES strings stand for the structures. The source made the active and inactive calls. The calls are words filed in the database; no cut-off is given here.

Usually IC50 stands for the concentration at which inhibition is half-maximal. For orientation: Ki means a measure of affinity in units of concentration, obtained from inhibition or displacement.

In the case of `O=C(O)CCCc1nc(-c2cccc3ccccc23)no1`, the IC50 in test [1] was determined as 63 µM. On to `Cc1ccc(-c2noc(CCCC(=O)O)n2)cc1`, for which the IC50 in test [1] is 88 µM. For `O=C(O)CCCc1nc(-c2ccc3c(c2)OCO3)no1`, the IC50 in test [1] was found to be 87 µM. Same read-out and setting: to `O=C(O)CCCc1nc(-c2ccc(Br)cc2)no1` belongs 110 µM.

As for `Nc1ccccc1C(=O)CCC(=O)O`, the affinity in test [2] corresponds to a Ki of 300 µM. Turning to `Cc1cccc(-c2noc(CCCC(=O)O)n2)c1`, in test [1], the concentration for half-maximal inhibition (IC50) was determined as 54 µM. Regarding `O=C(O)CCCc1nc(-c2ccc(Cl)c(Cl)c2)no1`, in test [1], the 50% inhibitory concentration (IC50) was found to be 64 µM.

In the case of `O=C(O)CCCc1nc(-c2ccc(I)cc2)no1`, in test [1], the IC50 was 42 µM.

As to `O=C(O)CCCc1nc(-c2ccc(Cl)cc2)no1`, in test [1], the IC50 amounted to 294 µM. For `COc1ccc(-c2noc(CCCC(=O)O)n2)cc1`, the 50% inhibitory concentration (IC50) in test [1] was 101 µM. Regarding `O=C(O)CCCc1nc(-c2ccccc2)no1`, the IC50 in test [1] came to 72 µM. Also, the inhibition result with Aedes aegypti was “Active”. Further, the results for the Ki in test [3] and in test [4] were 360 µM and 1.22 mM, respectively.

In the case of `O=C(O)CCCc1nc(-c2ccc(C(F)(F)F)cc2)no1`, the half-inhibitory concentration (IC50) in test [1] turned out to be 70 µM.
